# Reference: patent US12480948B2, “Ratiometric fluorescent probe for detecting aminopeptidase N, and preparation method and use thereof” (Jilin University, priority 2022, dated 2025)
# Columns and labels:
# APN in HepG2 cells = assay: APAP-induced hepatotoxicity and hepatoprotective drugs in HepG2 cells, imaged with NB-APN; format: cell-based, human; details: for effect on the red fluorescence of HepG2 cells: drug 300 μM + APAP 1,000 μM + NB-APN 5 μM
# Text: It has been reported that the excessive use of antipyretic analgesic acetaminophen (APAP) can cause drug-induced liver injury, during which process an APN concentration increases. The present disclosure also evaluates the performance of NB-APN in monitoring APN changes during APAP-induced acute hepatotoxicity and a drug treatment thereof. The NB-APN was used to evaluate the production of APN in APAP-stimulated cells. […] Furthermore, the NB-APN was used to study a relationship between the hepatotoxicity therapy and the APN level in living cells. Four drugs (NAC, GSH, TIO, and Glu) were investigated as anti-DILI hepatoprotective agents. […] This may be because the intake of GSH helps to improve the detoxification ability of the liver and reduce the damage of APAP to the liver. In addition, the western blot result was also consistent with the result of fluorescent imaging.
# APN in liver = molecular target: T1, APN in liver (Mus musculus, UniProt P97449); assay: In vivo imaging of APN activity in nude mice with DILI; set-up: species or system nude mouse; details: 300 mg/kg APAP intraperitoneal, 12 h after NB-APN tail vein injection
# T1 construct: from tissue; host or cells: liver of nude mice, in vivo
# T1 sequence (P97449 1-966): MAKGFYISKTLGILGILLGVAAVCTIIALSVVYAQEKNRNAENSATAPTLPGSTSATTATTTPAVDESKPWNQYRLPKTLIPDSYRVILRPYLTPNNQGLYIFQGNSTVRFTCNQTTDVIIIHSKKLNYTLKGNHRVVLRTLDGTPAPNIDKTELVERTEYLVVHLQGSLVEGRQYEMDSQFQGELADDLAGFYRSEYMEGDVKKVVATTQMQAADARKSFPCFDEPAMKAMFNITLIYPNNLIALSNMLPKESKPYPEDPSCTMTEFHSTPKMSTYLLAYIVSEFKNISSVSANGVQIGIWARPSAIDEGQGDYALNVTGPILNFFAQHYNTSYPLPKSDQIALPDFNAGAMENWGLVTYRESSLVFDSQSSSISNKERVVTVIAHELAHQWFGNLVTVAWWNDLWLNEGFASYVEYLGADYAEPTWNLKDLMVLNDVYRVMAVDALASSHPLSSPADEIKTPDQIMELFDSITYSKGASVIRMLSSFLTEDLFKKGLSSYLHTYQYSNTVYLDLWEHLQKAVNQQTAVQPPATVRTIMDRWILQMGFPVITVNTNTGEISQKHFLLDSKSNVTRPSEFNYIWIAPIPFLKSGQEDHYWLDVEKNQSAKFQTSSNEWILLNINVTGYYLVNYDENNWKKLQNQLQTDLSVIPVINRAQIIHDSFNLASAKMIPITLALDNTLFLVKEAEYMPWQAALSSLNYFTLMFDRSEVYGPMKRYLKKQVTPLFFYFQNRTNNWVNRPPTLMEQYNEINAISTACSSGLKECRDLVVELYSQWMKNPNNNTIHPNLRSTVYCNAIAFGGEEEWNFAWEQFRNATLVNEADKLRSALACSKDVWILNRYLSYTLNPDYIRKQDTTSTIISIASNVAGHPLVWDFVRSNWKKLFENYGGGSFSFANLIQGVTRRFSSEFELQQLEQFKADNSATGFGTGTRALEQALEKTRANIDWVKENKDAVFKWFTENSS
# Method: The NB-APN was used to image the activity of APN in nude mice with DILI. Nude mice were intraperitoneally pre-injected with pH 7.4 PBS (control), and then injected with NB-APN through the tail vein. The background fluorescence signal of the nude mice was extremely low 6 h and 12 h after the NB-APN injection. […] In addition, the nude mouse with DILI was sacrificed, and the main organs (heart, liver, spleen, lung, and kidney) and the tumor were collected for imaging after 3 h of NB-APN pretreatment.
# APN = APN (Homo sapiens, UniProt P15144); assay: Inhibitor experiments with bestatin in the NB-APN + APN system; format: biochemical; details: bestatin 1 μM and 10 μM, APN 25 ng/mL, NB-APN 10 μM, 37° C., pH 7.4, 20 min
# APN, sequence (P15144 whole entry, species assumed): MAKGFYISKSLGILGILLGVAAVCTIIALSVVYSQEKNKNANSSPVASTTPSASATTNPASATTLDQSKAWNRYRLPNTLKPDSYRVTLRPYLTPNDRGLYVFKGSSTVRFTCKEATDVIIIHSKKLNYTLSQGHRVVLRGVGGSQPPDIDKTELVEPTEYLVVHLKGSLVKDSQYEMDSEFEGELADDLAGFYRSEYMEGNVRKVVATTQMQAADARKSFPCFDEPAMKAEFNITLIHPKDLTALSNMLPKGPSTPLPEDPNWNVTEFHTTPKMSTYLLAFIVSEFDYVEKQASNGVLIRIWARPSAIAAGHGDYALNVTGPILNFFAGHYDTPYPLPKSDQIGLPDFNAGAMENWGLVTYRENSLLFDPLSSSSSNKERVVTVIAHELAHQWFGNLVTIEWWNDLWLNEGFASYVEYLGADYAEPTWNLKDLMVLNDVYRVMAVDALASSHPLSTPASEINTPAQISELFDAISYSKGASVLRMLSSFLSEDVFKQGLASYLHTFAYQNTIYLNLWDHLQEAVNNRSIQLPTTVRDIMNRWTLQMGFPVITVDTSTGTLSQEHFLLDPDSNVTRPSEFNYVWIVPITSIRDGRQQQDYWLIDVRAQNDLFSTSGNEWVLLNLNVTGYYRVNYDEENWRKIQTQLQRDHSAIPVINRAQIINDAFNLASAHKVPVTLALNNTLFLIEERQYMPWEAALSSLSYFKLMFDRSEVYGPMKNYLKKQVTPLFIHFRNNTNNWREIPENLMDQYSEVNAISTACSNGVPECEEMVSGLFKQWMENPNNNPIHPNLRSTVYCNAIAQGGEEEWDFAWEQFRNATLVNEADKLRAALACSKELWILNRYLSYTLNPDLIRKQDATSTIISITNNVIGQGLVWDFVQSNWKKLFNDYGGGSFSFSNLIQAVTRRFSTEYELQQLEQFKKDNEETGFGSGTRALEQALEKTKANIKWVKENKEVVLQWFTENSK
# Method: Inhibitor experiments: a: NB-APN (10 μM); b: system (a)+APN (25 ng/mL); c: system (b)+bestatin (1 μM); and d: system (b)+bestatin (10 μM).
# The influence of different concentrations of bestatin on the fluorescence ratio I675/I610 of 10 μM NB-APN (green) or 10 μM NB (red) was investigated, with λex=560 nm, 37° C., pH 7.4, 20 min.
# [1] = molecular target: T2, APN in liver cancer cells HepG2 (Homo sapiens, UniProt P15144); assay: Confocal ratiometric cell imaging of APN, HepG2; format: cell-based; details: HepG2, bestatin 100 μM pre-treatment 1 h, NB-APN 5 μM 30 min
# T2 construct: after acting on HepG2 cells, indicating the existence of intrinsic APN; endogenous in cells; host or cells: HepG2
# T2 sequence (P15144 whole entry): as the sequence (P15144 whole entry, species assumed) above
# Method: (§1) The probe NB-APN was used for the imaging analysis of APN in liver cancer cells HepG2 and normal hepatocytes LO2. A confocal fluorescence microscope was adopted, and an excitation light source with a wavelength of 559 nm was adopted. The light emitted from a yellow channel (580 nm to 620 nm) and a red channel (660 nm to 700 nm) was collected. The HepG2 cells and LO2 cells were each pre-treated with bestatin (100 μM) for 1 h and then incubated with NB-APN (5 μM) for 30 min.
# [2] = molecular target: T3, APN in normal hepatocytes LO2 (Homo sapiens, UniProt P15144); assay: Confocal ratiometric cell imaging of APN, LO2; format: cell-based; details: LO2, bestatin 100 μM pre-treatment 1 h, NB-APN 5 μM 30 min
# T3 construct: endogenous in cells; host or cells: LO2
# T3 sequence (P15144 whole entry): as the sequence (P15144 whole entry, species assumed) above
# Method: as §1
# [3] = molecular target: T4, APN in transplanted tumor (Homo sapiens, UniProt P15144); assay: In vivo fluorescent imaging of HepG2 tumor-transplanted nude mice; set-up: species or system nude mouse; details: 50 μL bestatin (100 μM) pre-injected 1 h before NB-APN
# T4 construct: from tissue; host or cells: HepG2 xenograft tumour in nude mouse
# T4 sequence (P15144 whole entry): as the sequence (P15144 whole entry, species assumed) above
# Method: Transplanted tumors from two nude mice were respectively pre-injected with 50 μL of PBS (control) and bestatin (100 μM), and 1 h later, 50 μL of NB-APN (50 μM) was intratumorally injected. Imaging was conducted at different time points (0 h, 0.25 h, 0.5 h, 1.0 h, 2.0 h, and 4.0 h) after the NB-APN injection.
# The intratumoral injection was adopted to study tumor imaging in a nude mouse liver cancer model under the red luminescence channel, and results are shown in FIG. 12. The fluorescence background of the nude mouse before the probe injection was very low. […] It can be considered accordingly that the fluorescence signal in a tumor is caused by the enzymatic activity of APN and thus the probe NB-APN can detect APN at a living organism level.
structure (smiles),measurement,setting,value
"CC(=O)Nc1ccc(O)cc1 [APAP, acetaminophen]",change of R value (APN level) with APAP concentration,"APN in HepG2 cells; HepG2, APAP 500 μM and 1,000 μM, NB-APN 5 μM",gradual increase in the R value
same,liver fluorescence (APN expression) in nude mice,APN in liver,strong fluorescence appeared in the liver
"N[C@@H](CCC(=O)N[C@@H](CS)C(=O)NCC(=O)O)C(=O)O [GSH, glutathione]","anti-hepatotoxic effect with APN as hepatotoxicity index, compared","APN in HepG2 cells; drug 300 μM + APAP 1,000 μM","better than that of NAC and Glu, but worse than that of TIO"
same,effect on the red fluorescence of HepG2 cells,APN in HepG2 cells,obvious inhibitory effect
CC(=O)N[C@@H](CS)C(=O)O [NAC],effect on the red fluorescence of HepG2 cells,APN in HepG2 cells,obvious inhibitory effect
CC(S)C(=O)NCC(=O)O (stereo not shown) [TIO],effect on the red fluorescence of HepG2 cells,APN in HepG2 cells,obvious inhibitory effect
CC(C)C[C@H](NC(=O)[C@@H](O)[C@H](N)Cc1ccccc1)C(=O)O [bestatin],effect on the fluorescence ratio signal I675/I610 of the NB-APN + APN system,APN,significant inhibitory effect
same,effect on intracellular fluorescence ratio R,[1],significantly reduced
same,effect on intracellular fluorescence ratio R,[2],significantly reduced
same,fluorescence signal at the tumor site compared with the group without inhibitor,[3],significantly weaker
